The term viability denotes a read-out of living cells in per cent, often relative to untreated cells.

SMILES strings stand for the structures. Where “and” joins values, the source holds several entries; their conditions need not be identical. Equal entries are not always repeated.

Series [1] concerns AML-PDX. Put plainly: AML-PDX Model. The format is in vivo, NSG mice. To be noted: peripheral blood, following 6 weeks of treatment, individual animals. How it is done:
Male NSG mice (6-9 weeks of age, The Jackson Laboratory) are irradiated with 250 cGy and on the next day, injected intravenously with AML-PDX (1×10^6 cells/100 μL). Peripheral blood is collected via the retro-orbital route and processed to measure hCD45+ cells by flow cytometry to confirm the establishment of leukemia. When leukemia engraftment reaches more than 1%, mice are randomly grouped for treatment with vehicle, Compound A (10 mg/kg, daily oral gavage), venetoclax (50 mg/kg, oral gavage for 2 weeks on and 1 week off (2 cycles)) or the combination of venetoclax (50 mg/kg, oral gavage for 2 weeks on and 1 week off (2 cycles)) and Compound A (10 mg/kg, daily oral gavage). Additional dosing may be employed beyond the 2 cycles stated above based on the assessment of the level of residual disease remaining following 6 weeks of treatment. Peripheral blood is collected once every two weeks via the retro-orbital route and processed to measure leukemia burden (% hCD33+/hCD45+ cells) by flow cytometry, and to measure differentiation (% hCD14+ cells percentage out of total hCD45+ cells)). Sixty-five μL stain/wash buffer (5% heat inactivated (HI)-FBS in DPBS) is added per tube, mixed up and down 3 to 4 times by pipette, and 100 μL of the blood suspension is transferred to 5 mL polypropylene tubes. The stains are added according to the manufacturer's instructions (anti-human CD33-APC (BD Biosciences cat #551378), anti-human CD14-PE-Cy7 (BD Biosciences cat #557742), anti-human CD45-APC-Cy7 (BD Biosciences cat #557833). The samples are incubated for 30 minutes at room temperature, protected from light. After the incubation, 1.5 mL 1× BD Lyse/Fix buffer (37° C., (BD #558049)) is added to each sample and incubated for 12 minutes at room temperature. The tubes are then centrifuged at 1500 RPMI for 5 minutes. BD Lyse/Fix solution is aspirated and the cell pellet washed with stain/wash buffer 2 times. Fixed cells are then resuspended in 200 μL stain/wash buffer then transferred to filtered flow tubes. Samples are analyzed on a Gallios Flow cytometer (Beckman, Texas) using standard flow cytometry principles and technique. Population gating and data analysis of percent population are performed in the Flow Jo software.

The subject of series [2] is MOLM14 wild-type and MOLM14 R132 cells. In words: Cell Viability Assay (Annexin V/DAPI flow cytometry: % viable cells and % apoptosis). The format is cell-based, human. How it is done: MOLM14 wild-type and MOLM14 R132 cells are treated with 2 μg/ml doxycycline to induce expression of IDH1 WT and IDH1-R132H and then incubated at 37 degrees C. for 4 days. Cells are seeded in 4 (12 wells) plates at 10,000 cells/well in 1 mL growth media containing 2 ug/mL doxycycline.
Cells are treated with: DMSO (in triplicate), or with Compound A at 0, 125, 250, 500, 1000 nM (each in triplicate) as described in the following: After the initial induction described above, 0.5 mL media with 1× of doxycycline plus 1× Compound A or DMSO is added and incubated for 3 days. After the 3 days, another 0.5 mL aliquot of fresh media with 1×doxycyline plus 1×compound A or DMSO is added and incubated for 3 further days. Venetoclax (0, 25, 50, 100, 200 nM) is then added as a single agent or in combination with 1× Compound A. Two days later, cells are collected in flow cytometry filtered tubes, and processed for flow cytometry. Cells are washed with Annexin V Binding Buffer (ABB, 2 mL) [1 M Hepes buffer (10 mL), 5 M NaCl (28 mL), 1 M CaCl2 (5 mL), H2O (957 mL)], and then centrifuged at 1500 rpm for 5 min. Cells are stained with ABB (50 μL), with APC Annexin V Antibody (1 μL, Biolegend cat #640941), and kept in the dark for 20 minutes. Cells are washed with ABB (2 mL) and centrifuged at 1500 rpm for 5 min. DAPI (Invitrogen cat #D3571) and counting beads (Invitrogen cat #C36950) are added in Annexin V binding buffer [DAPI (5 μL, 2 μg/mL)+counting beads (5 μL (520,000 beads per 50 μL))+ABB (150 μL)] in a total volume 160 μL/tube, then analyzed with a Gallios flow cytometer (Beckman Coulter). Cells collection is stopped when counting beads reach 250 beads per sample. Kalusa software is used for analysis. The percentage of gated Annexin V-negative/DAPI-negative cells constitutes % viable cells, while the percentage of Annexin V-positive cells constitutes % apoptosis.
(In general: A flow cytometer gives signals particle by particle.)

For series [3], the system named is mutant IDH1. To be noted: from WO 2018/111707 A1; cited from earlier work.
Series [4] concerns the target T1, mutant IDH1 (IDH1 R132H) in MOLM14 R132 cell line construct (Homo sapiens, UniProt O75874, R132H).
T1 construct: FLAG; host or cells: MOLM14 human leukemia cells (lentiviral, doxycycline-induced)
In words: 2-HG Inhibition Assay (LC-MS of cell culture supernatant). The format is cell-based. The settings on record: for 2-HG: 4 days, MOLM14 R132, doxycycline-induced, culture media. An excerpt: MOLM14 wild-type human leukemia cells and a MOLM14 R132 construct cell line are generated by lentiviral transfection of MOLM14 cells using IDH1 WT (doxycycline inducible) pSLIK-IDH1-FLAG (Addgene Plasmid #66802) and IDH1 R132H (doxycycline inducible) pSLIK-IDH1-R132H-FLAG (Addgene Plasmid #66803), and is kindly provided by Dr. Jean-Emmanuel Sarry (Centre de Recherches en Cancérologie de Toulouse, UMR1037, Inserm, Université de Toulouse 3 Paul Sabatier, Toulouse, France; bioRxiv 749580; doi.org/10.1101/749580). MOLM14-WT and MOLM14-R132 mutant cells are seeded in 6 well plates (lx 10^6/well) in 5 ml of complete RPMI medium containing 10% FBS (Sigma) and 1× Pen/Strep (Sigma). After induction with 2 μg/ml doxycycline, the cells are incubated in 37 degree for 4 days.
Cells are seeded in 12 wells plates (100,000 cells/well) in 1 mL, in triplicate. Cells are treated with 2 μg/ml doxycycline to induce IDH1 expression, then treated with DMSO, 0.1 or 1 μM Compound A, and incubated at 37 degrees C. for 4 days.
65 μL of media are collected and centrifuged, and 60 μL of the supernatant media are collected and frozen at −80 degrees C.
LCMS 2-HG Metabolite Analysis.
The effects of IDH1 inhibition on the concentrations of total 2-HG and (α-KG) are determined by liquid chromatography-mass spectrometry (LC-MS) analysis of cell culture supernatant. Calibration curves are prepared by spiking 2-HG and α-KG into cell culture media. The method utilizes derivatization with O-benzylhydroxylamine prior to analysis by LC-MS. Ten microliters of each standard or sample is placed into a deep-well 96-well plate and combined with 100 μL of internal standard solution containing 10 μM d5-2-hydroxyglutarate and 10 μM d6-α-KG. 50 μL of 1 M O-benzylhydroxylamine in pyridine buffer (8.6% pyridine, pH 5) and 50 μL of 1 M N-(3-dimethylaminopropyl)-N-ethylcarbodiimide hydrochloride (EDC) in pyridine buffer is added to each sample. The derivatization reaction proceeds at room temperature for one hour. […] Analyte concentrations for the unknowns are back-calculated from the calibration curves.

[5] abbreviates: venetoclax 50 mg/kg oral gavage, 2 weeks on and 1 week off (2 cycles).
[6] abbreviates: Compound A 10 mg/kg daily oral gavage, 10 mg/kg.

T1 sequence (O75874 whole entry R132H): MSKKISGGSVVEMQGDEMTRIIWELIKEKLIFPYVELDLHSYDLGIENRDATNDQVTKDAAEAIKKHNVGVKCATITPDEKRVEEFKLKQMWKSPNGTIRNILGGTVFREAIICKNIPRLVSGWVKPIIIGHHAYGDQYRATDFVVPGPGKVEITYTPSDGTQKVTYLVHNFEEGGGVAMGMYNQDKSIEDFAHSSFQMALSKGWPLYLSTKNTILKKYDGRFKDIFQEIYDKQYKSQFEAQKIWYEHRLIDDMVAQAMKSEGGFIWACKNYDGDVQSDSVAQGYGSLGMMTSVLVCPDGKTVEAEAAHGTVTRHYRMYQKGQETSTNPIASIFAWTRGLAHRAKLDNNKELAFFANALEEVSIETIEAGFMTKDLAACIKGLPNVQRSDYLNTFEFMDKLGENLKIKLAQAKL

For the molecule `CC1(C)CCC(CN2CCN(c3ccc(C(=O)NS(=O)(=O)c4ccc(NCC5CCOCC5)c([N+](=O)[O-])c4)c(Oc4cnc5[nH]ccc5c4)c3)CC2)=C(c2ccc(Cl)cc2)C1` [Venetoclax, venetoclax, reference compound], the “AML cell differentiation (% hCD14+ of hCD45+)” value in series [1] (setting [5]) is 37.7% and 26% and 40.7% and 32.6%. The “Leukemic burden (% hCD33+hCD45+ of total white cells)” value in series [1] (setting [5]) was 10.1% and 63% and 14.1% and 54.9%. Further, the viability at 0.025 µM in series [2] (Homo sapiens, MOLM-14, 48 h, venetoclax 25 nM alone, 2 days) was determined as 76.1%. For the same molecule, the viability at 0.05 µM in series [2] (Homo sapiens, MOLM-14, 48 h, venetoclax 50 nM alone, 2 days) turned out to be 76.9%. Also, the viability at 0.1 µM in series [2] (Homo sapiens, MOLM-14, 48 h, venetoclax 100 nM alone, 2 days) was found to be 70.4%. In addition, the viability at 0.2 µM in series [2] (Homo sapiens, MOLM-14, 48 h, venetoclax 200 nM alone, 2 days) was determined as 55.2%. In addition, the “% Annexin V + as a measure of apoptosis” value is 19.1% and 15.93% and 19.16% in series [2] (venetoclax 25 nM alone); 18.22% and 16.34% and 17.15% in series [2] (venetoclax 50 nM alone); 24.62% and 18.98% and 22.98% in series [2] (venetoclax 100 nM alone); 41.67% and 35.73% and 41.22% in series [2] (venetoclax 200 nM alone). Besides, the “% Cell Viability” value in series [2] (venetoclax 25 nM alone, 2 days) was 81.78% and 77.84%; in series [2] (venetoclax 50 nM alone, 2 days), 80.63% and 78.78%; in series [2] (venetoclax 100 nM alone, 2 days), 73.78%; in series [2] (venetoclax 200 nM alone, 2 days), 59.27% and 56.31%.

With `C=CC(=O)N1CCN([C@@H](CC2CC2)c2ccc([C@H](C)Nc3ncc4c(n3)N(CC)C(=O)OC4)cc2)CC1` [Compound A, 7-[[(1S)-1-[4-[(1S)-2-cyclopropyl-1-(4-prop-2-enoylpiperazin-1-yl)ethyl]phenyl]ethyl]amino]-1-ethyl-4H-pyrimido[4,5-d][1,3]oxazin-2-one], the “AML cell differentiation (% hCD14+ of hCD45+)” value in series [1] (setting [6]) was 44.1% and 58.3% and 63.6% and 64.1% and 51.7% and 58.9%. Further, the “Leukemic burden (% hCD33+hCD45+ of total white cells)” value in series [1] (setting [6]) is 87.8% and 88.5% and 51.5% and 65.6% and 85.1% and 81.9%. Further, the “% Annexin V + as a measure of apoptosis” value in series [2] (Compound A 125 nM alone) is 5.56% and 4.3% and 5.12%; in series [2] (Compound A 250 nM alone), 6.18% and 4.95% and 4.92%; in series [2] (Compound A 500 nM alone), 5.82% and 5.23% and 5.19%; in series [2] (Compound A 1000 nM alone) it was 7.2% and 5.51% and 7.52%. Besides, the “% Cell Viability” value in series [2] (Compound A 125 nM alone) is 95.14% and 94.27%; in series [2] (Compound A 250 nM alone) it was 94.27% and 94.41%; in series [2] (Compound A 500 nM alone) it was 93.92% and 94.15%; in series [2] (Compound A 1000 nM alone) it was 93.98% and 91.68%. In addition, the viability at 0.125 µM in series [2] (Homo sapiens, MOLM-14, Compound A 125 nM alone) was 93.7%. The viability at 0.25 µM in series [2] (Homo sapiens, MOLM-14, Compound A 250 nM alone) came out at 93.3%. Also, in series [2] (Homo sapiens, MOLM-14, Compound A 500 nM alone), the viability at 0.5 µM was 93.7%. Further, in series [2] (Homo sapiens, MOLM-14, Compound A 1000 nM alone), the viability at 1 µM worked out at 92%. Besides, the “2-HG production (in words)” value in series [3] was “selectively inhibits 2-HG production”. In addition, the “α-KG levels (in words)” value in series [3] is recorded as “without affecting α—KG levels”. Further, the 2-HG was 3.369 µM and 3.044 µM and 3.488 µM in series [4] (0.1 μM Compound A); 3.578 µM and 3.199 µM and 3.378 µM in series [4] (1 μM Compound A). Besides, the “2-HG production by mutant IDH1 (in words)” value in series [4] (MOLM14 R132 cell line construct) is reported as “inhibits 2-HG production”.

(Values after US12714712B2, “Combination therapy with a mutant IDH inhibitor and a Bcl-2 inhibitor” (Eli Lilly and Company, priority 2020, dated 2026).)
